According to US10772840B2 (Charleston Laboratories, Inc., priority 2016, dated 2020):
Structures can show the parent of a compound that is named as a salt.

Assay: Dissolution measurement by USP Apparatus 2 (Paddle Apparatus), HPLC analysis
Format: physicochemical
Conditions: for Dissolution, API released: 500 ml 0.1 N HCl pH 1.1, 37.0° C.; for Dissolution (% release), Max. / Dissolution (% release), Mean / Dissolution (% release), Min.: 500 ml 0.1 N HCl pH 1.1, N=6
Procedure: Dissolution studies were conducted to measure the rates of dissolution of active ingredients using a USP Apparatus 2 (Paddle Apparatus) with a dissolution fluid of 500 ml deaerated 0.1 N HCl (i.e., pH 1.1) at 37.0+/−0.5° C. Dissolution samples were analyzed by HPLC.
Dissolution medium of 0.1N HCl was prepared by mixing approximately 85 ml of concentrated (12N) Hydrochloric Acid with 10 L of water. Stock promethazine HCl standard solution was prepared by adding approximately 30 ml of dissolution medium to 25.0 mg of dried Promethazine Hydrochloride USP reference standard in a 50 ml volumetric flash, diluted to volume with dissolution media, and mixed well. […] The resulting solution is diluted to volume with dissolution medium and mixed well.
The dissolution apparatus used is USP Apparatus 2 (Paddle Apparatus) with a speed of 50 rpm at 37.0° C.±0.5° C. Dissolution medium (500 ml) was Helium sparged for at least 10 minutes. N=6 samples were tested. Sample time point of 5, 10, 15, 20, 30, 45, 60, and 90 minutes (final time point at 250 rpm). Filters: QLA 10 μm in-line full flow porous filter or equivalent; chromafil 1.0 μm on-line glass fiber membrane filter or equivalent.
The dissolution apparatus was assembled and the paddle was positioned so that the distance between its lower edge and the lower inner surface of the vessel is within 25 mm±2 mm throughout the test. This step was repeated for each of the six vessels. The speed (50 rpm) and the temperature (37.0° C.±0.5° C.) were set. 500 mL of 0.1N HCl solution were placed into each of the six vessels, previously degassed via helium purge, degassed using degasser or other suitable means. The Dissolution medium was equilibrated to set temperature and the temperature of the dissolution medium was checked with a thermometer or thermocouple before starting the dissolution. Each of the six (6) capsules were accurately weighed and the weight was recorded. The dissolution test was started. Each capsule was dropped with sinker into vessels noting the station assigned to each recorded capsule weight. The shaft was rotated at 50 rpm. Samples were withdrawn by dissolution auttosampler at 5, 10, 15, 20, 30, 45, 60, and 90 minutes into HPLC vials, or were withdraw manually. Filters (QLA 10 μm in-line full flow porous filter or equivalent; chromafil 1.0 μm on-line glass fiber membrane filter or equivalent) were utilized, discarding at least the first 5 mL of the filtrate, and clear filtrate was transfered into HPLC vials. After withdrawing samples at the 60 minute time point, the paddle rotation speed was increased to 250 rpm until the next time point of 90 minutes.
HPLC conditions: Flow rate: 1.0 ml/min; Injection Volume: 10 μL; Column Temperature: 40° C.±2° C.; Wavelengths: 240 nm; Run Time: 7 minutes; Mobile Phase A was 0.2% TFA in Water, which was prepared by mixing well 2.0 ml of trifluoroacetic acid with 1 L of water. Mobile Phase B: 0.2% TFA in Acetonitrile, which was prepared by mixing well 2.0 ml of trifluoroacetic acid to 1 L of acetonitrile; and Gradient used was as follows in Table 8.
If a Water® dissolution autosampler was utilized, then the Empower Dissolution Software was used to calculate the profile. Calculation are performed using a validated excel spreadsheet. When the sample was performed manually, the volume correction was considered for the calculation.

[1] = in a capsule, after 1 month store at 40° C., 5 min, 50 rpm
[2] = in a capsule, after 1 month store at 40° C., 10 min, 50 rpm
[3] = in a capsule, after 1 month store at 40° C., 15 min, 50 rpm
[4] = in a capsule, after 1 month store at 40° C., 20 min, 50 rpm
[5] = in a capsule, after 1 month store at 40° C., 30 min, 50 rpm
[6] = in a capsule, after 1 month store at 40° C., 45 min, 50 rpm
[7] = in a capsule, after 1 month store at 40° C., 60 min, 50 rpm
[8] = in a capsule, after 1 month store at 40° C., 90 min (250 rpm after 60 min)
[9] = in a capsule, large batch, 5 min, 50 rpm
[10] = in a capsule, large batch, 10 min, 50 rpm
[11] = in a capsule, large batch, 15 min, 50 rpm
[12] = in a capsule, large batch, 20 min, 50 rpm
[13] = in a capsule, large batch, 30 min, 50 rpm
[14] = in a capsule, large batch, 45 min, 50 rpm
[15] = in a capsule, large batch, 60 min, 50 rpm
[16] = in a capsule, large batch, 90 min (250 rpm after 60 min)

CC(CN1c2ccccc2Sc2ccccc21)N(C)C (centres unmarked) [Promethazine, Promethazine Hydrochloride]
Dissolution, API released (content of capsule without shells, 5 min, 50 rpm): 85% | Dissolution, API released (content of capsule without shells, 10 min, 50 rpm): 90% | Dissolution, API released (content of capsule without shells, 15 min, 50 rpm): 92% | Dissolution, API released (content of capsule without shells, 20 min, 50 rpm): 94% | Dissolution, API released (content of capsule without shells, 30 min, 50 rpm): 94% | Dissolution, API released (content of capsule without shells, 45 min, 50 rpm): 95% | Dissolution, API released (content of capsule without shells, 60 min, 50 rpm): 96% | Dissolution, API released (content of capsule without shells, 90 min (250 rpm after 60 min)): 100% | Dissolution (% release), Max. [1]: 56 | Dissolution (% release), Mean [1]: 43 | Dissolution (% release), Min. [1]: 35 | Dissolution (% release), Max. [2]: 77 | Dissolution (% release), Mean [2]: 64 | Dissolution (% release), Min. [2]: 54 | Dissolution (% release), Max. [3]: 83 | Dissolution (% release), Mean [3]: 73 | Dissolution (% release), Min. [3]: 63 | Dissolution (% release), Max. [4]: 88 | Dissolution (% release), Mean [4]: 79 | Dissolution (% release), Min. [4]: 68 | Dissolution (% release), Max. [5]: 92 | Dissolution (% release), Mean [5]: 84 | Dissolution (% release), Min. [5]: 74 | Dissolution (% release), Max. [6]: 96 | Dissolution (% release), Mean [6]: 89 | Dissolution (% release), Min. [6]: 80 | Dissolution (% release), Max. [7]: 98 | Dissolution (% release), Mean [7]: 92 | Dissolution (% release), Min. [7]: 84 | Dissolution (% release), Max. [8]: 103 | Dissolution (% release), Mean [8]: 102 | Dissolution (% release), Min. [8]: 99 | Dissolution (% release), Max. [9]: 63 | Dissolution (% release), Mean [9]: 47 | Dissolution (% release), Min. [9]: 32 | Dissolution (% release), Max. [10]: 87 | Dissolution (% release), Mean [10]: 69 | Dissolution (% release), Min. [10]: 53 | Dissolution (% release), Max. [11]: 92 | Dissolution (% release), Mean [11]: 78 | Dissolution (% release), Min. [11]: 63 | Dissolution (% release), Max. [12]: 95 | Dissolution (% release), Mean [12]: 82 | Dissolution (% release), Min. [12]: 71 | Dissolution (% release), Max. [13]: 97 | Dissolution (% release), Mean [13]: 87 | Dissolution (% release), Min. [13]: 79 | Dissolution (% release), Max. [14]: 99 | Dissolution (% release), Mean [14]: 92 | Dissolution (% release), Min. [14]: 85 | Dissolution (% release), Max. [15]: 101 | Dissolution (% release), Mean [15]: 94 | Dissolution (% release), Min. [15]: 88 | Dissolution (% release), Max. [16]: 105 | Dissolution (% release), Mean [16]: 102 | Dissolution (% release), Min. [16]: 101 | Dissolution, API released (in a capsule, small batch, 5 min, 50 rpm): 55% | Dissolution, API released (in a capsule, small batch, 10 min, 50 rpm): 78% | Dissolution, API released (in a capsule, small batch, 15 min, 50 rpm): 85% | Dissolution, API released (in a capsule, small batch, 20 min, 50 rpm): 88% | Dissolution, API released (in a capsule, small batch, 30 min, 50 rpm): 92% | Dissolution, API released (in a capsule, small batch, 45 min, 50 rpm): 95% | Dissolution, API released (in a capsule, small batch, 60 min, 50 rpm): 97% | Dissolution, API released (in a capsule, small batch, 90 min (250 rpm after 60 min)): 102% | Dissolution, API released (promethazine and sumatriptan pellets, 5 min, 50 rpm): 95% | Dissolution, API released (promethazine and sumatriptan pellets, 15 min, 50 rpm): 102% | Dissolution, API released (promethazine and sumatriptan pellets, 20 min, 50 rpm): 102% | Dissolution, API released (promethazine and sumatriptan pellets, 30 min, 50 rpm): 102% | Dissolution, API released (promethazine and sumatriptan pellets, 45 min, 50 rpm): 102% | Dissolution, API released (promethazine and sumatriptan pellets, 60 min, 50 rpm): 102% | Dissolution, API released (promethazine and sumatriptan pellets, 90 min (250 rpm after 60 min)): 102%
